This note sets out measurements from patent US20210330818A1, “METHOD FOR ANALYZING NON-OBSERVED EFFECT CONCENTRATION (NOEC) OF CHEMICAL ON ORGANISM” (priority 2020, published 2021).

The subject of series [1] is quail. The series is described as follows: Chronic toxicity (growth and reproduction) test for quails fed poisonous feedstuff. Particulars: for Egg production: average daily, day 40 to 48; for Stillbirth rate: eggs of day 45 to 50; for NOEC (smallest NOEC among the endpoint effects): quail, overall over body weight, egg production, stillbirth rate. The format is in vivo. From the text: In the test, the quail was adopted as a test organism, acetamiprid and MCPA were adopted as test chemicals, and the end effects were body weight, average daily egg production and stillbirth rate.
Healthy and lively quails, which were 30-day old and weighed 90 g to 110 g, were selected for the test. The male and female were raised separately, with 10 quails for each cage. The quails were fed with a poisonous feedstuff twice a day at the same feeding amount for a long time, with an average feeding amount of 20 g per day for each quail. Since the feeding started, the body weight was recorded for quails in each treatment; the number of eggs produced on day 40 to 48 was counted; the eggs produced on day 45 to 50 were collected and hatched in a poultry-specific hatcher separately for each treatment; and the stillbirth rate was calculated. In this example, the endpoint effect data were body weight, egg production and stillbirth rate.

For series [2], the system named is Trichogramma. The series is described as follows: Chronic toxicity test on Trichogramma, egg card-dipping method. As to conditions: for NOEC (smallest NOEC among the endpoint effects): Trichogramma, overall over egg yield, emergence rate, adult survival time. From the text: Trichogramma is one of the natural enemies that are most widely used and have dominant influence. As an important means to control insect pests, chemical pesticides can also cause toxic and side effects to natural enemies of the insect pests that will be killed by the chemical pesticides. […] In the test, Trichogramma was adopted as a test organism, dimethoate and imidacloprid were adopted as test chemicals, and endpoint effects were egg yield, emergence rate and adult survival time. 6 treatment concentrations (including 1 blank control and 5 test chemical concentrations, see Table 1 for details) were set for each test chemical group.
The egg card-dipping method was adopted. A 1.0 cm×2.0 cm card of rice moth eggs (approximately 100 eggs) was placed in each finger tube, then about 20 Trichogramma adults at 4 h to 6 h after emergence were introduced, and the Trichogramma adults were removed after they had parasitized the rice moth eggs for 24 h. 144 h later, the egg cards were dipped in test solutions with different concentrations separately for 5 s, then taken out and air dried, and put into finger tubes. The tubes were sealed with a black cloth, and then put in an incubator until the emergence of Trichogramma adults was completed. A 0.1% Triton X-100 aqueous solution was adopted as a blank control. 9 replicates were set for each treatment, and divided into three groups for the observation of 3 endpoint effects respectively, namely, with 3 replicates for each endpoint effect. A first group was used to investigate the egg yield; a second group was used to investigate the number of emerged adults, and the emergence rate was calculated (emergence rate=the number of emerged adults/the number of […]×100%); and a third group was used to investigate the adult survival time. If the number of emerged adults is less than 30 or the emerged adults have a low vitality and thus cannot be transferred to a new finger tube autonomously, the parasitism rate and survival time will not be investigated.

Setting [3] is: mass concentration 0.5 mg/Lfeedstuff.
The mark [4] stands for this setting: mass concentration 2 mg/Lfeedstuff.
[5] abbreviates: mass concentration 7 mg/Lfeedstuff.
Where [6] appears, read: mass concentration 30 mg/Lfeedstuff.
Setting [7] is: mass concentration 130 mg/Lfeedstuff.
Setting [8] is: mass concentration 1.25 mg/Lfeedstuff.
[9] abbreviates: mass concentration 6.25 mg/Lfeedstuff.
Where [10] appears, read: mass concentration 25 mg/Lfeedstuff.
Setting [11] is: mass concentration 125 mg/Lfeedstuff.
The mark [12] stands for this setting: mass concentration 500 mg/Lfeedstuff.

Consider `C/C(=N\C#N)N(C)Cc1ccc(Cl)nc1` [Acetamiprid, acetamiprid], for which, in series [1] (125 mg/L), the “Validation: body weight compared with blank control” value is recorded as “no significant difference”, the “Validation: egg production compared with blank control” value is given as “no significant difference” and the “Validation: stillbirth rate compared with blank control” value was “no significant difference”. Moreover, in series [1], the “NOEC for chronic toxicity in quails based on the body weight” value was determined as 130 mg/kgfeedstuff, the “NOEC for chronic toxicity in quails based on the egg production” value came to 130 mg/kgfeedstuff, the “NOEC for chronic toxicity in quails based on the stillbirth rate” value was 130 mg/kgfeedstuff and the “NOEC (smallest NOEC among the endpoint effects)” value is on record as 130 mg/kgfeedstuff. In series [1] (setting [3]), this molecule showed a Body weight of 150.9 a g, an Egg production of 0.87 a eggs and a Stillbirth rate of 23.4 a %. Also, in series [1] (setting [4]), the Body weight was 156.7 a g, the Egg production was determined as 0.86 a eggs and the Stillbirth rate is 16.7 a %. Besides, in series [1] (setting [5]), the Body weight worked out at 153.6 a g, the Egg production amounted to 0.87 a eggs and the Stillbirth rate came to 25.7 a %. Besides, in series [1] (setting [6]), the Body weight turned out to be 151.9 a g, the Egg production is 0.89 a eggs and the Stillbirth rate came out at 26.4 a %. In series [1] (setting [7]), this molecule gave a Body weight of 145.4 a g, an Egg production of 0.86 a eggs and a Stillbirth rate of 21.9 a %.

On to `CNC(=O)CSP(=S)(OC)OC` [Dimethoate, dimethoate], for which, in series [2] (90 mg/L), the “Validation: egg yield compared with blank control” value is “no significant difference”. Also, in series [2], the “NOEC (smallest NOEC among the endpoint effects)” value is given as 100 mg/L, the “NOEC for chronic toxicity in Trichogramma based on the adult survival time” value turned out to be 400 mg/L, the “NOEC for chronic toxicity in Trichogramma based on the egg yield” value stood at 100 mg/L and the “NOEC for chronic toxicity in Trichogramma based on the emergence rate” value was 200 mg/L. In series [2] (mass concentration 25 mg/L), the Adult survival time was 3.15 a d and the Egg yield is 36.1 a eggs. Further, in series [2] (mass concentration 50 mg/L), the Adult survival time was 3.27 a d and the Egg yield was 34.2 a eggs. Besides, in series [2] (mass concentration 100 mg/L), the Adult survival time was 3.30 a d and the Egg yield came out at 31.6 a eggs. For the same molecule, in series [2] (mass concentration 200 mg/L), the Adult survival time amounted to 2.67 a d and the Egg yield is 27.2 b eggs. In series [2] (mass concentration 400 mg/L), this molecule registered an Adult survival time of 2.32 a d and an Egg yield of 20.7 b eggs.

In the case of `O=[N+]([O-])NC1=NCCN1Cc1ccc(Cl)nc1` [Imidacloprid, imidacloprid], in series [2] (35 mg/L), the “Validation: emergence rate compared with blank control” value was “no significant difference”. In addition, in series [2], the “NOEC (smallest NOEC among the endpoint effects)” value came to 40 mg/L, the “NOEC for chronic toxicity in Trichogramma based on the adult survival time” value is 160 mg/L, the “NOEC for chronic toxicity in Trichogramma based on the egg yield” value was 80 mg/L and the “NOEC for chronic toxicity in Trichogramma based on the emergence rate” value is 40 mg/L. Besides, in series [2] (mass concentration 10 mg/L), the Adult survival time amounted to 3.60 a d, the Egg yield worked out at 37.0 a eggs and the Emergence rate came to 90.57 a %. Besides, in series [2] (mass concentration 20 mg/L), the Adult survival time is 3.23 a d, the Egg yield amounted to 37.3 a eggs and the Emergence rate came to 87.81 a %. For the same molecule, in series [2] (mass concentration 40 mg/L), the Adult survival time was determined as 3.50 a d, the Egg yield worked out at 36.0 a eggs and the Emergence rate is 78.19 a %. Also, in series [2] (mass concentration 80 mg/L), the Adult survival time worked out at 3.21 a d, the Egg yield turned out to be 34.2 a eggs and the Emergence rate was found to be 56.12 b %. In series [2] (mass concentration 160 mg/L), this molecule yielded an Adult survival time of 3.12 a d, an Egg yield of 28.5 b eggs and an Emergence rate of 27.65 c %.

As for `Cc1cc(Cl)ccc1OCC(=O)O` [MCPA], the “Validation: body weight compared with blank control” value in series [1] (20 mg/L) was “no significant difference”. Moreover, in series [1], the “NOEC for chronic toxicity in quails based on the body weight” value was determined as 25 mg/kgfeedstuff, the “NOEC for chronic toxicity in quails based on the egg production” value is 500 mg/kgfeedstuff, the “NOEC for chronic toxicity in quails based on the stillbirth rate” value is given as 25 mg/kgfeedstuff and the “NOEC (smallest NOEC among the endpoint effects)” value was 25 mg/kgfeedstuff. Also, in series [1] (setting [8]), the Body weight amounted to 148.5 ab g, the Egg production was 0.97 a eggs and the Stillbirth rate was found to be 22.4 a %. In series [1] (setting [9]), the Body weight came to 155.3 ab g, the Egg production was determined as 0.96 a eggs and the Stillbirth rate came to 23.2 ab %. In addition, in series [1] (setting [10]), the Body weight was determined as 150.7 ab g, the Egg production is given as 0.96 a eggs and the Stillbirth rate was determined as 21.2 a %. In series [1] (setting [11]), this molecule showed a Body weight of 145.2 b g, an Egg production of 0.95 a eggs and a Stillbirth rate of 26.4 b %. Besides, in series [1] (setting [12]), the Body weight turned out to be 159.5 a g, the Egg production is on record as 0.94 a eggs and the Stillbirth rate came out at 37.3 b %.
